Measured values from ChEMBL document CHEMBL3351907, “Design, synthesis and biological evaluation of benzyl 2-(1H-imidazole-1-yl) pyrimidine analogues as selective and potent Raf inhibitors” (Bioorg Med Chem Lett, 2014).
Active and inactive are the calls of the source. The rule behind the calls is not given here.

Tests used:
Type in all cases: functional
[1] = (§1) Cytotoxicity against human A375P cells assessed as cell viability after 24 hrs by MTT assay
[2] = (§2) Cytotoxicity against human U937 cells assessed as cell viability after 24 hrs by MTT assay; settings: U-937, 24 h
A375P = assay: as §1
U-937 = assay: as §2

C[C@H](O)CNc1nccc(-n2ccnc2Cc2cccc(NC(=O)c3ccc(Cl)cc3)c2)n1
GI50 [1]: 10.2 µM | GI50 [2]: > 30 µM

C[C@H](O)CNc1nccc(-n2ccnc2Cc2cccc(NC(=O)c3cnn(-c4ccccc4)c3C(F)(F)F)c2)n1
GI50 [1]: 6.39 µM | GI50 [2]: 25.8 µM

C[C@H](O)CNc1nccc(-n2ccnc2Cc2cccc(NC(=O)C3Cc4ccccc4N3)c2)n1 (stereo not given in full)
GI50 [1]: > 30 µM | GI50 [2]: 18.5 µM

C[C@H](O)CNc1nccc(-n2ccnc2C(=O)c2ccc(NC(=O)c3ccc(Cl)c(C(F)(F)F)c3)cc2)n1
GI50 [1]: > 30 µM | GI50 [2]: > 30 µM

C[C@H](O)CNc1nccc(-n2ccnc2C(=O)c2ccc(NC(=O)c3ccc(Cl)cc3)cc2)n1
GI50 [1]: > 30 µM | GI50 [2]: > 30 µM

C[C@H](O)CNc1nccc(-n2ccnc2C(=O)c2ccc(NC(=O)c3cccc(Cl)c3)cc2)n1
GI50 [1]: > 30 µM | GI50 [2]: > 30 µM

C[C@H](O)CNc1nccc(-n2ccnc2Cc2cccc(NC(=O)c3ccc4ccccc4n3)c2)n1
GI50 (A375P): inactive | GI50 [2]: 23.8 µM

Cc1c(C)c2c(c(C)c1O)CC[C@](C)(C(=O)Nc1cccc(Cc3nccn3-c3ccnc(NC[C@H](C)O)n3)c1)O2
GI50 (A375P): inactive | GI50 [2]: 23.6 µM

C[C@H](O)CNc1nccc(-n2ccnc2Cc2cccc(NC(=O)c3ccccc3F)c2)n1
GI50 [1]: 7.45 µM | GI50 [2]: > 30 µM

C[C@H](O)CNc1nccc(-n2ccnc2C(=O)c2cccc(NC(=O)Nc3ccc(Cl)c(Cl)c3)c2)n1
GI50 [1]: > 30 µM | GI50 [2]: 14.7 µM

C[C@H](O)CNc1nccc(-n2ccnc2Cc2cccc(NC(=O)c3cc(N4CCOCC4)cc(C(F)(F)F)c3)c2)n1
GI50 [1]: 6.6 µM | GI50 [2]: 9.7 µM

C[C@H](O)CNc1nccc(-n2ccnc2Cc2cccc(NC(=O)c3cc(N4CCN(C)CC4)cc(C(F)(F)F)c3)c2)n1
GI50 [1]: 12.3 µM | GI50 [2]: > 30 µM

C[C@H](O)CNc1nccc(-n2ccnc2C(=O)c2ccc(NC(=O)Nc3ccc(Cl)c(C(F)(F)F)c3)cc2)n1
GI50 [1]: > 30 µM | GI50 [2]: 7.45 µM

C[C@H](O)CNc1nccc(-n2ccnc2Cc2cccc(NC(=O)c3ccccc3Sc3ccccc3C#N)c2)n1
GI50 (A375P): inactive | GI50 [2]: 10 µM

C[C@H](O)CNc1nccc(-n2ccnc2Cc2cccc(NC(=O)c3cnccn3)c2)n1
GI50 (A375P): inactive | GI50 [2]: > 30 µM

CCN1CCN(Cc2ccc(NC(=O)Nc3cccc(Cc4nccn4-c4ccnc(NC[C@H](C)O)n4)c3)cc2C(F)(F)F)CC1
GI50 [1]: > 30 µM | GI50 [2]: > 30 µM

C[C@H](O)CNc1nccc(-n2ccnc2C(=O)c2cccc(NC(=O)c3cccc(Cl)c3)c2)n1
GI50 [1]: > 30 µM | GI50 [2]: > 30 µM

C[C@H](O)CNc1nccc(-n2ccnc2Cc2cccc(NC(=O)C(c3ccc(Cl)cc3)c3ccc(Cl)cc3)c2)n1
GI50 [1]: 3.97 µM | GI50 [2]: 3.24 µM

C[C@H](O)CNc1nccc(-n2ccnc2C(=O)c2ccc(NC(=O)Nc3ccc(Cl)c(Cl)c3)cc2)n1
GI50 [1]: > 30 µM | GI50 [2]: 11.6 µM

C[C@H](O)CNc1nccc(-n2ccnc2Cc2cccc(NC(=O)c3ccccc3-c3ccccc3)c2)n1
GI50 (A375P): inactive | GI50 (U-937): inactive
